# Test results from US9783532B2, “Molecules having certain pesticidal utilities, and intermediates, compositions, and processes related thereto” (Dow AgroSciences LLC, priority 2013, dated 2017).
# Read-outs that look alike come from different tables or passages of the source.
# What was measured:
# Assay type in all cases: in vivo
# [1] = system: Yellow Fever Mosquito "YFM" (Aedes aegypti); conditions: for YFM (Biological Results, Insect species): activity rating class
# Experimental: Certain molecules disclosed in this document were tested against YFM using procedures described in the following paragraph. In the reporting of the results, the “YFM Rating Table” was used (See Table Section).
# Master plates containing 400 μg of a molecule dissolved in 100 μL of dimethyl sulfoxide (DMSO) (equivalent to a 4000 ppm solution) are used. A master plate of assembled molecules contains 15 μL per well. To this plate, 135 μL of a 90:10 wateracetone mixture is added to each well. A robot (Biomek® NXP Laboratory Automation Workstation) is programmed to dispense 15 μL aspirations from the master plate into an empty 96-well shallow plate (“daughter” plate). There are 6 reps (“daughter” plates) created per master. The created daughter plates are then immediately infested with YFM larvae.
# The day before plates are to be treated, mosquito eggs are placed in Millipore water containing liver powder to begin hatching (4 g. into 400 mL). After the daughter plates are created using the robot, they are infested with 220 μL of the liver powder/larval mosquito mixture (about 1 day-old larvae). After plates are infested with mosquito larvae, a non-evaporative lid is used to cover the plate to reduce drying. Plates are held at room temperature for 3 days prior to grading. After 3 days, each well is observed and scored based on mortality.
# [2] = system: Cabbage Looper (Trichoplusia ni) ("CL"); assay: Bioassay on cabbage looper (CL), 128-well diet tray assay; conditions: for pest or weed control at 50 µg/cm2: activity rating class, read-out: CL (Biological Results, Insect species)
# Outline: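 Percent mortality, averaged across eight replicate wells, was read after five to seven days at 25 °C under a 14:10 photoperiod. Each well held one to five second-instar T. ni on diet carrying a dried 50 μg/cm^2 dose applied in acetone-water 90:10.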
# [3] = system: Beet Armyworm (Spodoptera exigua) ("BAW"); assay: Bioassay on beet armyworm (BAW), 128-well diet tray assay; conditions: for pest or weed control at 50 µg/cm2: Table ABC (FB), activity rating class, read-out: BAW (Biological Results, Insect species)
# Outline: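 Percent mortality, averaged across eight wells, was read after five to seven days at 25° C. under 14:10 light-dark. Each well held one to five second-instar larvae on artificial diet that had been treated with 50 μg/cm^2 compound in 90:10 acetone-water and dried.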
SMILES,"YFM % Control (or Mortality) rating ([1]; about 1 day-old larvae, 96-well plate, room temperature, 3 days, mortality)","mortality at 50 µg/cm2 ([2]; 168 h, 50 μg/cm^2 on artificial diet, second instar CL larvae, 25° C., five to seven days, average of eight wells, read-out: CL % Control (or Mortality) rating) [%]","mortality at 50 µg/cm2 ([3]; 168 h, 50 μg/cm^2 on artificial diet, second instar BAW larvae, 25° C., five to seven days, average of eight wells, read-out: BAW % Control (or Mortality) rating) [%]","YFM (Biological Results, Insect species) ([1]; Table ABC (FB))",pest or weed control at 50 µg/cm2 ([2]; Table ABC (FB)) [%],pest or weed control at 50 µg/cm2 [3] [%],"YFM (Biological Results, Insect species) ([1]; Table ABC (PC))",pest or weed control at 50 µg/cm2 ([2]; Table ABC (PC)) [%]
"Cc1ccc(C(C)C)c(N2C(=O)CS/C2=N\C(=O)NCCCc2ccc(-c3ncn(-c4ccc(OC(F)(F)F)cc4)n3)cc2)c1 [F20, (Z)-1-(3-(2-isopropyl-5-methylphenyl)-4-oxothiazolidin-2-ylidene)-3-(3-(4-(1-(4-(trifluoromethoxy)phenyl)-1H-1,2,4-triazol-3-yl)phenyl)propyl)urea]",A (80-100),50 to 100,50 to 100,,,,,
"Cc1ccc(N2C(=O)CS/C2=N\C(=O)NCCCCc2ccc(-c3ncn(-c4ccc(OC(F)(F)F)cc4)n3)cc2)c(C)c1 [FB17, (Z)-1-(3-(2,4-dimethylphenyl)-4-oxothiazolidin-2-ylidene)-3-(4-(4-(1-(4-(trifluoromethoxy)phenyl)-1H-1,2,4-triazol-3-yl)phenyl)butyl)urea]",,,,A (80-100),50 to 100,50 to 100,,
"CC(C)c1ccc(Cl)cc1N1C(=O)CS/C1=N\C(=O)NCCc1ccc(-c2ncn(-c3ccc(OC(F)(F)F)cc3)n2)cc1 [FB40, (Z)-1-(3-(5-chloro-2-isopropylphenyl)-4-oxothiazolidin-2-ylidene)-3-(4-(1-(4-(trifluoromethoxy)phenyl)-1H-1,2,4-triazol-3-yl)phenethyl)urea]",,,,A (80-100),50 to 100,50 to 100,,
Cc1ccc(C(C)C)c(N2C(=O)CCS/C2=N\C(=O)NCCc2ccc(-c3ncn(-c4ccc(OC(F)(F)F)cc4)n3)cc2)c1 [FB41],,,,A (80-100),50 to 100,50 to 100,,
CC(Cc1ccc(-c2ncn(-c3ccc(OC(F)(F)F)cc3)n2)cc1)NC(=O)/N=C1\SCC(=O)N1c1cc(Cl)ccc1C(C)C (centres unmarked) [FB42],,,,A (80-100),50 to 100,50 to 100,,
"Cc1ccc(N2C(=O)CS/C2=N\C(=O)NC(C)Cc2ccc(-c3ncn(-c4ccc(OC(F)(F)F)cc4)n3)cc2)c(C(C)C)c1 (centres unmarked) [FB48, (Z)-1-(3-(2-isopropyl-4-methylphenyl)-4-oxothiazolidin-2-ylidene)-3-(1-(4-(1-(4-(trifluoromethoxy)phenyl)-1H-1,2,4-triazol-3-yl)phenyl)propan-2-yl)urea]",,,,A (80-100),50 to 100,50 to 100,,
"CC(C)c1ccc(Cl)cc1N1C(=O)CS/C1=N\C(=O)NCC(C)c1ccc(-c2ncn(-c3ccc(OC(F)(F)F)cc3)n2)cc1 (centres unmarked) [FB49, (Z)-1-(3-(5-chloro-2-isopropylphenyl)-4-oxothiazolidin-2-ylidene)-3-(2-(4-(1-(4-(trifluoromethoxy)phenyl)-1H-1,2,4-triazol-2,4-triazol-3-yl)phenyl)propyl)urea]",,,,A (80-100),50 to 100,50 to 100,,
Cc1ccc(C(C)C)c(N2C(=O)CS/C2=N\C(=O)N(C)CCc2ccc(-c3ncn(-c4ccc(OC(F)(F)F)cc4)n3)cc2)c1 [FB51],,,,A (80-100),50 to 100,50 to 100,,
"Cc1ccc(C(C)C)c(N2C(=O)CS/C2=N\C(=O)NCC(C)(C)c2ccc(-c3ncn(-c4ccc(OC(F)(F)F)cc4)n3)cc2)c1 [FB53, (Z)-1-(3-(2-isopropyl-5-methylphenyl)-4-oxothiazolidin-2-ylidene)-3-(2-methyl-2-(4-(1-(4-(trifluoromethoxy)phenyl)-1H-1,2,4-triazol-3-yl)phenyl)propyl)urea]",,,,B (More than 0-Less than 80),50 to 100,50 to 100,,
"CCc1cccc(C)c1NC(=S)NC(=O)NCCCCc1ccc(-c2ncn(-c3ccc(OC(F)(F)F)cc3)n2)cc1 [PC153, 1-[(2-ethyl-6-methyl-phenyl)carbamothioyl]-3-[4-[4-[1-[4-(trifluoromethoxy)phenyl]-1H-1,2,4-triazol-3-yl]phenyl]butyl]urea]",,,,,,,B (More than 0-Less than 80),50 to 100
